This note sets out measurements from patent US20140031283A1, “ANTICANCER FUSION PROTEIN” (ADAMED SP. Z O.O., priority 2011, published 2014).

Test [1] relates to human colon cancer HCT116. Description: HCT116 colon cancer xenograft in Crl:SHO-Prkdc^scidHr^hr mice. The format is in vivo. The conditions noted are these: 65 mg/kg i.v., 10 daily applications with a two-day break, 24th day. The procedure:
(§1) Antitumor activity of protein preparations was tested in a mouse model of human colon cancer HCT116, human colon cancer Colo205, human colon cancer model SW620, human liver cancer model HepG2, and human lung cancer models NCI-H460 and NCI-H460-Luc2.
The HCT116 (in mice Crl:SHO-Prkdc^scidHr^hr) were alternatively maintained in McCoy's medium (Hyclone, Logan, Utah, USA) supplemented with 10% fetal calf serum and 2 mM glutamine. On the day of mice grafting, the cells were detached from the support by washing the cells with trypsin (Invitrogen), then the cells were centrifuged at 1300 rpm, 4° C., 8 min., suspended in HBSS buffer (Hanks medium), counted and diluted to the concentration of 25×10^6 cells/ml. SW620 cells were maintained in DMEM (HyClone, Logan, Utah, USA) supplemented with 10% fetal calf serum and 2 mM glutamine. On the day of mice grafting, the cells were detached from the support by washing the cells with trypsin (Invitrogen), then the cells were centrifuged at 1300 rpm, 4° C., 8 min., suspended in HBSS buffer (Hanks medium), counted and diluted to the concentration of 25×10^6 cells/ml.
Examination of antitumor activity of proteins of the invention was conducted on 7-9 week-old CD-nude (Crl:CD1-Foxn1^nu 1) or 4-6 week-old Crl:SHO-Prkdc^scidHr^hr mice obtained from Charles River Germany. […]

In test [2] the test system is human lung cancer NCI-H460-Luc2. Kind of test: NCI-H460-Luc2 lung cancer xenograft in Crl:CD1-Foxn1nu 1 mice. It counts as in vivo. The following applies: NCI-H460-Luc2, Crl:CD1-Foxn1nu 1 mice, 10 mg/kg i.v. six times every second day, 30th day. The procedure: as §1
(§2) The HCT116 (in mice Crl:CD1-Foxn1^nu 1), Colo205, NCI-H460, NCI-H460-Luc2 cells were maintained in RPMI 1640 medium (Hyclone, Logan, Utah, USA) mixed in the ratio of 1:1 with Opti-MEM (Invitrogen, Cat.22600-134) supplemented with 10% fetal calf serum and 2 mM glutamine. On the day of mice grafting, the cells were detached from the support by washing the cells with trypsin (Invitrogen), then the cells were centrifuged at 1300 rpm, 4° C., 8 min., suspended in HBSS buffer (Hanks medium), counted and diluted to the concentration of 25×10^6 cells/ml.
(§3) Examination of antitumor activity of proteins of the invention was conducted on 7-9 week-old CD-nude (Crl:CD1-Foxn1^nu 1) or 4-6 week-old Crl:SHO-Prkdc^scidHr^hr mice obtained from Charles River Germany. Mice were kept under specific pathogen-free conditions with free access to food and demineralised water (ad libitum). All experiments on animals were carried in accordance with the guidelines: “Interdisciplinary Principles and Guidelines for the Use of Animals in Research. […]

The next test deals with NCI-H460. The following applies: continuous incubation over 72 h, test MTT.
Test [3] has as its system human colon cancer HCT116. Description: HCT116 colon cancer xenograft in Crl:CD1-Foxn1^nu 1 mice. It counts as in vivo. The conditions noted are these: HCT116, Crl:CD1-Foxn1^nu 1 mice. The procedure:
as §1, §2, §3

Turning to “rhTRAIL114-281: recombinant human soluble TRAIL, amino acids 114-281 of hTRAIL, used as the comparative reference”, the “tumor growth inhibition (TGI) relative to the control” value in test [1] was 38%; in test [2], 53.1%; in test [3] (10 mg/kg i.v. daily for ten days, 31th day), 21.8%; in test [3] (10 mg/kg i.v., 10 daily applications with a two-day break after the first 5, 27th day) it was 44%. Also, the “NCI-H460 IC50” value in the test on NCI-H460 was determined as 0.06968 µg/mL.
